# Source: US20160130577A1, “NUCLEOTIDE SEQUENCE MOTIFS DIRECTING NUCLEIC ACID LOCATION TO EXTRACELLULAR VESICLES” (FUNDACIÓN CENTRO NACIONAL DE INVESTIGACIONES …, priority 2012, published 2016)
# Assays:
# hnRNPA2B1 sumoylation = test: Western blot of hnRNPA2B1 molecular weight in EVs with sumoylation inhibitor; format: cell-based, human; conditions: anacardic acid 100 μM 4 h, then diluted 1:4 overnight; versus DMSO
# Protocol: (§1) To confirm whether the higher molecular weight of EVs hnRNPA2B1 was due to sumoylation, we cultured Jurkat T cells in the presence of the specific sumoylation inhibitor anacardic acid (AA). Briefly, cells were cultured with anacardic acid (100 μM) (Sigma) or 6 DMSO for 4 h at 37° C. Cells were then diluted 1:4 and incubated overnight. EVs and cells were resuspended in buffer 1 for western blotting or hnRNPA2B1 immunoprecipitation (FIG. 13B).
# sumo-conjugated proteins = test: Western blot of cell extracts for SUMO-1 (sumoylation inhibitor efficiency); format: cell-based, human; conditions: anacardic acid versus DMSO
# Protocol: (§2) FIG. 13. Assessment of sumoylation inhibitor efficiency. (A) Western blot analysis of hnRNPA1 in T cells and their EVs. (B) Representative western blot showing the decrease in sumo-conjugated proteins in the presence of anacardic acid. Cells were incubated with anacardic acid (AA) or DMSO (control condition, CONT) and cell extracts were blotted for SUMO-1. (C) Representative western blot showing no changes in EV secretion and cell death in the presence of anacardic acid. Cells were incubated with anacardic acid (AA) or DMSO (CONT), and EV were purified by ultracentrifugation and blotted for CD81 and cytochrome c.
# as §1
# Jurkat T cells [1] = test: qPCR of miRNA levels in EVs from control or AA-treated cells; format: cell-based, human; conditions: anacardic acid 100 μM versus DMSO
# hnRNPA2B1 [2] = test: hnRNPA2B1 IP-qPCR from EV lysates of control or AA-treated cells; format: cell-based, human; conditions: EV lysates from AA-treated versus control cells
# Protocol: as §1
# Jurkat T cells [3] = test: Western blot of EVs for CD81 and cytochrome c (EV secretion, cell death); format: cell-based; conditions: anacardic acid versus DMSO
# Protocol: as §2, §1
# hnRNPA2B1 [4] = test: pull-down of EV extracts with biotinylated miRNA-coated streptavidin beads, mass spectrometry; format: binding, human
# Protocol: To analyze the molecular mechanism that controls the packaging of miRNAs presenting the motifs of the invention in EVs, a search was performed of the proteins present in EVs and which bind specifically to EVmiRNAs. For this purpose, extracts of isolated EVs from human T lymphoblasts were incubated in the presence of streptavidin beads coated with biotinylated EVmiRNA miR-198, or with biotinylated CLmiRNA miR-17. The analysis of EVs-coupled beads was performed by FACS. Briefly, Evs were obtained by ultracentrifugation and sucrose gradient flotation, resuspended in PBS and coupled to 4 μm aldehyde-sulfate beads (Invitrogen) overnight at room temperature in rotation. Beads were washed and blocked for 60 min at room temperature in 4% BSA in PBS. For intracellular staining, bead-bound Evs were permeabilized and fixed for 5 min at room temperature with 0.2% TX, 2% FA in PBS. […] Beads were acquired on a FACSCalibur (BD) and data were analyzed with FlowJo software (Tree Star). […] Briefly, the peptides were resuspended and injected onto a C-18 reversed phase (RP) nano-column (75 μm 2 I.D.×25 cm, Acclaim PepMap100, Thermo Scientific) and analyzed in a continuous acetonitrile gradient consisting of 0-43% B in 90 min, 50-90% B in 1 min (B=90% acetonitrile, 0.5% acetic acid). […] SEQUEST results were validated using the probability ratio method and false discovery rates calculated using the refined method. […]
# Target sequence in this assay (P22626 15-353 limits assumed): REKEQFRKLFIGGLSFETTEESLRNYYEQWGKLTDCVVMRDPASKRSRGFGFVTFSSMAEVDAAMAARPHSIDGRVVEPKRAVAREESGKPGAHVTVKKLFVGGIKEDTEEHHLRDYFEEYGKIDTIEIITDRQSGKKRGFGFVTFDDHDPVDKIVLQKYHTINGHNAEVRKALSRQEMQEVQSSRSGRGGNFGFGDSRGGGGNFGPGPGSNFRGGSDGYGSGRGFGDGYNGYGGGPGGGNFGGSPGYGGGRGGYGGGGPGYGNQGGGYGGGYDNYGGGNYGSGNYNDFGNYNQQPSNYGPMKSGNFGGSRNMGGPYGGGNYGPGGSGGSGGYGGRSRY
# NUCL = target: T1, NUCL (Homo sapiens, UniProt P19338); test: as above; format: binding; conditions: NUCL precipitated from EV extracts of human T lymphoblasts
# T1 construct: endogenous in cells; host or cells: extracellular vesicles from primary human T lymphoblasts
# T1 sequence (P19338 whole entry): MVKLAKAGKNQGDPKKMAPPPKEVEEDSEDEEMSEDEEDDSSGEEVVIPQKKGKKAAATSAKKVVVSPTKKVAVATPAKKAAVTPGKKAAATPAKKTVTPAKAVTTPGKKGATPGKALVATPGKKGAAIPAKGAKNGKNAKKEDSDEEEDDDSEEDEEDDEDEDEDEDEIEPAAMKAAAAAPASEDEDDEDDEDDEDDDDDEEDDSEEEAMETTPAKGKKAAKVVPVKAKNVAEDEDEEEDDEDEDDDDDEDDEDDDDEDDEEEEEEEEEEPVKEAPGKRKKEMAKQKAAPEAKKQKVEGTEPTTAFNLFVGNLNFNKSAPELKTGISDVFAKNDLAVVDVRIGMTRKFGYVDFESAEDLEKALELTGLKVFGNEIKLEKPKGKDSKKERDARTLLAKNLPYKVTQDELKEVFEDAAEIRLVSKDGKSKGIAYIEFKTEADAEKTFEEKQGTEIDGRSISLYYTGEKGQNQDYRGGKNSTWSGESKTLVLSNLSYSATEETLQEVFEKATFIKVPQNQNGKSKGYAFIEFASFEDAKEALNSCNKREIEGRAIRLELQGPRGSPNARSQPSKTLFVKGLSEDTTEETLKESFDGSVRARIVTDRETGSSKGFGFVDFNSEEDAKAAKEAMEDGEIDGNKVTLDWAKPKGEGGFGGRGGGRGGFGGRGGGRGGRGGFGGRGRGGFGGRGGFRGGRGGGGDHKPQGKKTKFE
# Protocol: (§3) To analyze the molecular mechanism that controls the packaging of miRNAs presenting the motifs of the invention in EVs, a search was performed of the proteins present in EVs and which bind specifically to EVmiRNAs. For this purpose, extracts of isolated EVs from human T lymphoblasts were incubated in the presence of streptavidin beads coated with biotinylated EVmiRNA miR-198, or with biotinylated CLmiRNA miR-17. The analysis of EVs-coupled beads was performed by FACS. Briefly, Evs were obtained by ultracentrifugation and sucrose gradient flotation, resuspended in PBS and coupled to 4 μm aldehyde-sulfate beads (Invitrogen) overnight at room temperature in rotation. Beads were washed and blocked for 60 min at room temperature in 4% BSA in PBS. For intracellular staining, bead-bound Evs were permeabilized and fixed for 5 min at room temperature with 0.2% TX, 2% FA in PBS. Beads were incubated with antihnRNPA2B1 (Santa Cruz) or anti-CD81 (5A6, Santa Cruz) for 1 h at 4° C., washed and incubated with Alexa-488-goat-anti-mouse IgG (Invitrogen) for 30 min. Beads were acquired on a FACSCalibur (BD) and data were analyzed with FlowJo software (Tree Star). Negative controls were obtained with EV-coupled beads incubated with the secondary antibody. The proteins collected were identified by high performance mass spectrometry. As negative controls, uncoated or poly-A-coated streptavidin beads were used. Briefly, proteins were in-gel digested using a previously-described protocol. Briefly, 75 μl of beads were suspended in 25 μl sample buffer and loaded in 2.8-cm-wide wells of an SDS-PAGE gel. The run was stopped as soon as the front entered 3 mm into the resolving gel; the protein band was visualized by Coomassie staining, excised and digested overnight at 37° C. with 60 ng/μl trypsin at 5:1 protein:trypsin (w/w) ratio in 50 mM ammonium bicarbonate, pH 8.8 containing 10% ACN. The resulting tryptic peptides were extracted by 1 h incubation in 12 mM ammonium bicarbonate, pH 8.8. TFA was added to a final concentration of 1% and the peptides were finally desalted onto C18 Oasis cartridges and dried down. Peptide identification by mass spectrometry was performed as described. Briefly, the peptides were resuspended and injected onto a C-18 reversed phase (RP) nano-column (75 μm 2 I.D.×25 cm, Acclaim PepMap100, Thermo Scientific) and analyzed in a continuous acetonitrile gradient consisting of 0-43% B in 90 min, 50-90% B in 1 min (B=90% acetonitrile, 0.5% acetic acid). A flow rate of ca. 300 nL/min was used to elute peptides from the RP nano-column to an emitter nanospray needle for real time ionization and peptide fragmentation on an LTQ XP Orbitrap mass spectrometer (Thermo Fisher, San José, Calif., USA). An enhanced FT spectrum (30.000 resolution) followed by MS/MS spectra from most intense ten parent ions were performed along the chromatographic run (130 min). Dynamic exclusion was set at 30 s. The MS/MS raw files were searched against the Human Swissprot database (Uniprot release 14.0, 19929 sequence entries for human) supplemented with porcine trypsin and bacterial Streptavidin. SEQUEST results were validated using the probability ratio method and false discovery rates calculated using the refined method. Peptide and scan counting was performed assuming as positive events those with a FDR equal to or lower than 5%.
# HNRPU = target: T2, HNRPU (Homo sapiens, UniProt Q00839); test: as above; format: binding; conditions: HNRPU precipitated from EV extracts of human T lymphoblasts
# T2 construct: endogenous in cells; host or cells: extracellular vesicles from primary human T lymphoblasts
# T2 sequence (Q00839 whole entry): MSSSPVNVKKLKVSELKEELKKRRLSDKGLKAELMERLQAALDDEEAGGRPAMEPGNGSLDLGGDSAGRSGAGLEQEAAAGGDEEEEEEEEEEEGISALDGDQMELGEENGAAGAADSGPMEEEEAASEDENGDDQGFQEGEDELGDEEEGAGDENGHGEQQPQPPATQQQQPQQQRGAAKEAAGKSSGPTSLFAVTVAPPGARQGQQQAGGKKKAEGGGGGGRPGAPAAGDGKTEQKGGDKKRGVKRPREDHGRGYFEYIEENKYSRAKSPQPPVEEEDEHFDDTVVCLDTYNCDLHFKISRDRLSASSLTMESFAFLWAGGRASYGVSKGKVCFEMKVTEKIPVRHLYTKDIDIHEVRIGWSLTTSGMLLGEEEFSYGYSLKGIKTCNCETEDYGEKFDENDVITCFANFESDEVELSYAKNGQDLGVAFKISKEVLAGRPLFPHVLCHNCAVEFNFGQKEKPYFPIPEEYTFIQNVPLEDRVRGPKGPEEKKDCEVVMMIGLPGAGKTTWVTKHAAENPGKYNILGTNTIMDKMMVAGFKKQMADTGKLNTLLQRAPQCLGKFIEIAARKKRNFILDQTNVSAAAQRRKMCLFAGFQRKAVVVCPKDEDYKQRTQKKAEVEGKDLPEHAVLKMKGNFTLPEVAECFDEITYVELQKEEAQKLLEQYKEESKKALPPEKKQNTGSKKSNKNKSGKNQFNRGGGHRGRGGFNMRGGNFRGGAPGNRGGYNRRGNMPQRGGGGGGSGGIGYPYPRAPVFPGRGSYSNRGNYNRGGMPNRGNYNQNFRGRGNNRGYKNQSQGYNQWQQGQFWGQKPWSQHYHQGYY
# Protocol: as §3
# RS3 = target: T3, RS3 (Homo sapiens, UniProt P23396); test: as above; format: binding; conditions: RS3 precipitated from EV extracts of human T lymphoblasts
# T3 construct: endogenous in cells; host or cells: extracellular vesicles from primary human T lymphoblasts
# Protocol: as §3
# RS4X = target: T4, RS4X (Homo sapiens, UniProt P62701); test: as above; format: binding; conditions: RS4X precipitated from EV extracts of human T lymphoblasts
# T4 construct: endogenous in cells; host or cells: extracellular vesicles from primary human T lymphoblasts
# Protocol: as §3
# HNRPC = target: T5, HNRPC (Homo sapiens, UniProt P07910); test: as above; format: binding; conditions: HNRPC precipitated from EV extracts of human T lymphoblasts
# T5 construct: endogenous in cells; host or cells: extracellular vesicles from primary human T lymphoblasts
# T5 sequence (P07910 whole entry): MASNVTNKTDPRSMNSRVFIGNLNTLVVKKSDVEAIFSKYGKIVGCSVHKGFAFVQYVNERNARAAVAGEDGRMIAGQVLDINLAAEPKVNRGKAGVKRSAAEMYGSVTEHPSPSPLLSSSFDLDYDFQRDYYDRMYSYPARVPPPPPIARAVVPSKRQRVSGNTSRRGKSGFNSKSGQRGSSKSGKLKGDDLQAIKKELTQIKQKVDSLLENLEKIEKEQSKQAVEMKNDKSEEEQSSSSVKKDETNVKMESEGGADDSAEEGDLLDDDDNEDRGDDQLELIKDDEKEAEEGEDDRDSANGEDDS
# Protocol: as §3
# hnRNPA1 = target: T6, hnRNPA1 (Homo sapiens, UniProt P09651); test: as above; format: binding
# T6 construct: endogenous in cells; host or cells: extracellular vesicles from primary human T lymphoblasts
# T6 sequence (P09651 whole entry): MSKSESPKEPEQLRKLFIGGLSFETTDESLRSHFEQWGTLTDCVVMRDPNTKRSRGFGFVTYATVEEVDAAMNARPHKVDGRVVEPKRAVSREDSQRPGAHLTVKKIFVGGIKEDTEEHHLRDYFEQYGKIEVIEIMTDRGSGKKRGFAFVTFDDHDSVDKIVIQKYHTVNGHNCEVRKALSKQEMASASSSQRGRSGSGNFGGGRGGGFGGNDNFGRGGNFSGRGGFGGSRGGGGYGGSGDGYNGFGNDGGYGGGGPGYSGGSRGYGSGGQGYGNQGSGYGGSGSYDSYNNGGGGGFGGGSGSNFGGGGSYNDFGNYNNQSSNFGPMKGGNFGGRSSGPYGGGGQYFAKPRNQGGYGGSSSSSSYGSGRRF
# Protocol: as §3
Compound,low-molecular weight hnRNPA2B1 band in EVs (hnRNPA2B1 sumoylation),sumo-conjugated proteins (SUMO-1 blot) (sumo-conjugated proteins),levels of miR-17 in EVs (Jurkat T cells [1]),levels of miR-18 in EVs (Jurkat T cells [1]),levels of miR-198 in EVs (Jurkat T cells [1]),miR-198 bound to hnRNPA2B1 (IP-qPCR) (hnRNPA2B1 [2]),EV secretion (CD81 blot) (Jurkat T cells [3]),cell death (cytochrome c blot) (Jurkat T cells [3]),Number of peptides identified by mass spectrometry (hnRNPA2B1 [4]; hnRNPA2B1 precipitated from EV extracts of human T lymphoblasts),binding of hnRNPA2B1 (in words) (hnRNPA2B1 [4]; pull-down from EV extracts),Number of peptides identified by mass spectrometry (NUCL),Number of peptides identified by mass spectrometry (HNRPU),Number of peptides identified by mass spectrometry (RS3),Number of peptides identified by mass spectrometry (RS4X),Number of peptides identified by mass spectrometry (HNRPC),Number of peptides identified by mass spectrometry (hnRNPA1; hnRNPA1 precipitated from EV extracts of human T lymphoblasts),binding of hnRNPA1 (in words) (hnRNPA1; pull-down from EV extracts)
CCCCCCCCCCCCCCCc1cccc(O)c1C(=O)O [anacardic acid],could be readily detected,decrease,did not change,did not change,reduced,decreased binding,no changes,no changes,,,,,,,,,
poly-A,,,,,,,,,0,no binding,8,0,0,0,0,0,no binding
